Test results published in US12252524B2, “GIP/GLP1 co-agonist compounds” (Eli Lilly and Company, priority 2018, dated 2025).
Numbered stars: 1 amine (or outer) side, 2 acyl side, 3 side chain; on linkers, the order of the positions; unused ones are H or OH. Square brackets hold non-standard residues; d marks the D form. Side chains are listed from the residue outwards. Peptide text beside a SMILES is read from it. * marks the point of attachment. C20 diacid = O=C(O)CCCCCCCCCCCCCCCCCCC(=O)*; C18 diacid = O=C(O)CCCCCCCCCCCCCCCCC(=O)*; αMePhe(2-F) = C[C@](N)(Cc1ccccc1F)C(=O)O; γGlu = O=C(O)[C@H](CCC(=O)[*:2])N[*:1]; 3Pal = N[C@@H](Cc1cccnc1)C(=O)O; αMeL = CC(C)C[C@](C)(N)C(=O)O; αMeP = C[C@@]1(C(=O)O)CCCN1; AEEA = NCCOCCOCC(=O)O; Aib = CC(C)(N)C(=O)O

Legend:
[1] = target: human GLP-1 receptor (GLP-1R) (Homo sapiens, UniProt P43220); experiment: cAMP pharmacological functional assay in presence of casein, hGLP-1R; format: cell-based; details: HEK293 cells expressing hGLP-1R, 0.1% Casein, geometric mean; read-out: hGLP1R cAMP Rel EC50 nM (SEM, n)
[2] = target: T1, gastric inhibitory peptide receptor (GIPR) (Homo sapiens, UniProt P48546); experiment: cAMP pharmacological functional assay in presence of casein, hGIPR; format: cell-based; details: HEK293 cells expressing hGIPR, 0.1% Casein, geometric mean; read-out: hGIPR cAMP Rel EC50 nM (SEM, n)
T1 sequence (P48546 22-466): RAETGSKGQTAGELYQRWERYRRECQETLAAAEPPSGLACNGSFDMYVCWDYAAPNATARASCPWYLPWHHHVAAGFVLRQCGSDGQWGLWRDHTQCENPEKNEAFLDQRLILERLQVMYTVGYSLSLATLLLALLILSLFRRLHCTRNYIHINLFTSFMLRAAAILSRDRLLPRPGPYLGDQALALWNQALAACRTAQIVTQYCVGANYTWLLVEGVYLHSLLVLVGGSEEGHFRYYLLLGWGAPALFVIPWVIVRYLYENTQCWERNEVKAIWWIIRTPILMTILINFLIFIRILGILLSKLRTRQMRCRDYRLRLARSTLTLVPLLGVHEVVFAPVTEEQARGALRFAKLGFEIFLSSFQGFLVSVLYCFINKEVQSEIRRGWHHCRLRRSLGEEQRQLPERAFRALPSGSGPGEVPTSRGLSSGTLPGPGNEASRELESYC

human GLP-1 receptor (GLP-1R), sequence (P43220 24-463): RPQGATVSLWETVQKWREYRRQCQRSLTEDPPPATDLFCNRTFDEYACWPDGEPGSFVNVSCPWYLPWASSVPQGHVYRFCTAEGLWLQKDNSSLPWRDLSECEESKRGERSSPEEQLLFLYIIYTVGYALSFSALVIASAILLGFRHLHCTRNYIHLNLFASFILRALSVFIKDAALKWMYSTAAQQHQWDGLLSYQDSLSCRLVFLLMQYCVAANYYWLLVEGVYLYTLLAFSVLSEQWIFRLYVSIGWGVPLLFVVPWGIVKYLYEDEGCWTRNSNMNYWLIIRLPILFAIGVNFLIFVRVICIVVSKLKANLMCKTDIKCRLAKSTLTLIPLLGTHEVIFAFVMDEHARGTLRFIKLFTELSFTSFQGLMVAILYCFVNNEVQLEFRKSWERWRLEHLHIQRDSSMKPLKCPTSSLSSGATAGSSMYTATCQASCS

| SMILES | EC50 [1] [nM] | EC50 [2] [nM] |
| --- | --- | --- |
| CC[C@H](C)[C@H](NC(=O)[C@H](CC(C)C)NC(=O)[C@H](Cc1ccc(O)cc1)NC(=O)[C@@H](CCC(=O)O)NC(=O)[C@@H](NC(=O)[C@H](Cc1ccccc1)NC(=O)[C@H](Cc1c[nH]cn1)NC(=O)C(C)(C)NC(=O)[C@H](CCC(N)=O)NC(=O)[C@H](C)NC(=O)[C@H](CCCCNC(=O)COCCOCCNC(=O)COCCOCCNC(=O)CC[C@H](NC(=O)CCCCCCCCCCCCCCCCC(=O)O)C(=O)O)NC(=O)[C@H](CCC(=O)O)NC(=O)[C@H](CC(=O)O)NC(=O)[C@H](CC(C)C)NC(=O)[C@](C)(CC(C)C)NC(=O)[C@@H](NC(=O)[C@H](CO)NC(=O)[C@H](Cc1c[nH]cn1)NC(=O)[C@H](CC(=O)O)NC(=O)[C@H](CO)NC(=O)[C@@H](NC(=O)[C@](C)(Cc1ccccc1F)NC(=O)[C@@H](NC(=O)CNC(=O)[C@H](CCC(=O)O)NC(=O)C(C)(C)NC(=O)[C@@H](N)Cc1ccc(O)cc1)[C@@H](C)O)[C@@H](C)O)[C@@H](C)CC)[C@@H](C)CC)C(=O)N[C@@H](CCC(=O)O)C(=O)NCC(=O)NCC(=O)N1CCC[C@H]1C(=O)N[C@@H](CO)C(=O)N[C@@H](CO)C(=O)NCC(=O)N[C@@H](C)C(=O)N1CCC[C@H]1C(=O)N1CCC[C@H]1C(=O)N1CCC[C@H]1C(=O)N[C@@H](CO)C(N)=O [Example 177] (H-Y[Aib]EGT[αMePhe(2-F)]TSDHSI[αMeL]LDEK([AEEA-AEEA-γGlu-C18 diacid])AQ[Aib]HFI[dE]YLIEGGPSSGAPPPS-NH2) | 6.79 | 1.4 |
| CC[C@H](C)[C@H](NC(=O)[C@H](CC(C)C)NC(=O)[C@H](Cc1ccc(O)cc1)NC(=O)[C@@H](CCC(=O)O)NC(=O)[C@@H](NC(=O)[C@H](Cc1ccccc1)NC(=O)[C@H](CCC(=O)O)NC(=O)C(C)(C)NC(=O)[C@H](CCC(N)=O)NC(=O)[C@H](C)NC(=O)[C@H](CCCCNC(=O)COCCOCCNC(=O)COCCOCCNC(=O)CC[C@H](NC(=O)CCCCCCCCCCCCCCCCCCC(=O)O)C(=O)O)NC(=O)[C@H](CCC(=O)O)NC(=O)[C@H](CC(=O)O)NC(=O)[C@H](CC(C)C)NC(=O)[C@](C)(CC(C)C)NC(=O)[C@@H](NC(=O)[C@H](CO)NC(=O)[C@H](CCC(N)=O)NC(=O)[C@H](CC(=O)O)NC(=O)[C@H](CO)NC(=O)[C@@H](NC(=O)[C@](C)(Cc1ccccc1F)NC(=O)[C@@H](NC(=O)CNC(=O)[C@H](CCC(=O)O)NC(=O)C(C)(C)NC(=O)[C@@H](N)Cc1ccc(O)cc1)[C@@H](C)O)[C@@H](C)O)[C@@H](C)CC)[C@@H](C)CC)C(=O)N[C@@H](CCC(=O)O)C(=O)NCC(=O)NCC(=O)N1CCC[C@H]1C(=O)N[C@@H](CO)C(=O)N[C@@H](CO)C(=O)NCC(=O)N[C@@H](C)C(=O)N1CCC[C@H]1C(=O)N1CCC[C@H]1C(=O)N1CCC[C@H]1C(=O)N[C@@H](CO)C(N)=O [Example 187] (H-Y[Aib]EGT[αMePhe(2-F)]TSDQSI[αMeL]LDEK([AEEA-AEEA-γGlu-C20 diacid])AQ[Aib]EFI[dE]YLIEGGPSSGAPPPS-NH2) | 0.0577 | 0.0371 |
| CC[C@H](C)[C@H](NC(=O)[C@H](CC(C)C)NC(=O)[C@H](Cc1ccc(O)cc1)NC(=O)C(C)(C)NC(=O)[C@@H](NC(=O)[C@H](Cc1ccccc1)NC(=O)[C@H](CCC(=O)O)NC(=O)C(C)(C)NC(=O)[C@H](CCC(N)=O)NC(=O)[C@H](C)NC(=O)[C@H](CCCCNC(=O)COCCOCCNC(=O)COCCOCCNC(=O)CC[C@H](NC(=O)CCCCCCCCCCCCCCCCCCC(=O)O)C(=O)O)NC(=O)[C@H](CCC(=O)O)NC(=O)[C@H](CC(=O)O)NC(=O)[C@H](CC(C)C)NC(=O)[C@](C)(CC(C)C)NC(=O)[C@@H](NC(=O)[C@H](CO)NC(=O)[C@H](Cc1cccnc1)NC(=O)[C@H](CC(=O)O)NC(=O)[C@H](CO)NC(=O)[C@@H](NC(=O)[C@](C)(Cc1ccccc1F)NC(=O)[C@@H](NC(=O)CNC(=O)[C@H](CCC(=O)O)NC(=O)C(C)(C)NC(=O)[C@@H](N)Cc1ccc(O)cc1)[C@@H](C)O)[C@@H](C)O)[C@@H](C)CC)[C@@H](C)CC)C(=O)N[C@@H](CCC(=O)O)C(=O)NCC(=O)NCC(=O)N1CCC[C@H]1C(=O)N[C@@H](CO)C(=O)N[C@@H](CO)C(=O)NCC(=O)N[C@@H](C)C(=O)N1CCC[C@H]1C(=O)N1CCC[C@H]1C(=O)N1CCC[C@H]1C(=O)N[C@@H](CO)C(N)=O [Example 188] (H-Y[Aib]EGT[αMePhe(2-F)]TSD[3Pal]SI[αMeL]LDEK([AEEA-AEEA-γGlu-C20 diacid])AQ[Aib]EFI[Aib]YLIEGGPSSGAPPPS-NH2) | 0.13 | 0.121 |
| CC[C@H](C)[C@H](NC(=O)[C@H](CC(C)C)NC(=O)[C@H](Cc1ccc(O)cc1)NC(=O)[C@@H](CCC(=O)O)NC(=O)[C@@H](NC(=O)[C@H](Cc1ccccc1)NC(=O)[C@H](CCC(=O)O)NC(=O)C(C)(C)NC(=O)[C@H](CCC(N)=O)NC(=O)[C@H](C)NC(=O)[C@H](CCCCNC(=O)COCCOCCNC(=O)COCCOCCNC(=O)CC[C@H](NC(=O)CCCCCCCCCCCCCCCCCCC(=O)O)C(=O)O)NC(=O)[C@H](CCC(=O)O)NC(=O)[C@H](CC(=O)O)NC(=O)[C@H](CC(C)C)NC(=O)[C@](C)(CC(C)C)NC(=O)[C@@H](NC(=O)[C@H](CO)NC(=O)[C@H](Cc1cccnc1)NC(=O)[C@H](CC(=O)O)NC(=O)[C@H](CO)NC(=O)[C@@H](NC(=O)[C@](C)(Cc1ccccc1F)NC(=O)[C@@H](NC(=O)CNC(=O)[C@H](CCC(=O)O)NC(=O)C(C)(C)NC(=O)[C@@H](N)Cc1c[nH]cn1)[C@@H](C)O)[C@@H](C)O)[C@@H](C)CC)[C@@H](C)CC)C(=O)N[C@@H](CCC(=O)O)C(=O)NCC(=O)NCC(=O)N1CCC[C@H]1C(=O)N[C@@H](CO)C(=O)N[C@@H](CO)C(=O)NCC(=O)N[C@@H](C)C(=O)N1CCC[C@H]1C(=O)N1CCC[C@H]1C(=O)N1CCC[C@H]1C(=O)N[C@@H](CO)C(N)=O [Example 190] (H-H[Aib]EGT[αMePhe(2-F)]TSD[3Pal]SI[αMeL]LDEK([AEEA-AEEA-γGlu-C20 diacid])AQ[Aib]EFI[dE]YLIEGGPSSGAPPPS-NH2) | 0.0241 | 0.738 |
| CC[C@H](C)[C@H](NC(=O)[C@H](CC(C)C)NC(=O)[C@H](Cc1ccc(O)cc1)NC(=O)[C@H](CCC(=O)O)NC(=O)[C@@H](NC(=O)[C@H](Cc1ccccc1)NC(=O)[C@H](C)NC(=O)[C@H](CCC(N)=O)NC(=O)[C@H](CCC(N)=O)NC(=O)[C@H](C)NC(=O)[C@H](CCCCNC(=O)COCCOCCNC(=O)COCCOCCNC(=O)CC[C@H](NC(=O)CCCCCCCCCCCCCCCCCCC(=O)O)C(=O)O)NC(=O)[C@H](CCC(=O)O)NC(=O)[C@H](CC(=O)O)NC(=O)[C@H](CC(C)C)NC(=O)[C@H](CC(C)C)NC(=O)[C@@H](NC(=O)[C@H](CO)NC(=O)[C@H](Cc1ccc(O)cc1)NC(=O)[C@H](CC(=O)O)NC(=O)[C@H](CO)NC(=O)[C@@H](NC(=O)[C@H](Cc1ccccc1)NC(=O)[C@@H](NC(=O)CNC(=O)[C@H](CCC(=O)O)NC(=O)[C@]1(C)CCCN1C(=O)[C@@H](N)Cc1ccc(O)cc1)[C@@H](C)O)[C@@H](C)O)[C@@H](C)CC)[C@@H](C)CC)C(=O)N[C@@H](CCC(=O)O)C(=O)NCC(=O)NCC(=O)N1CCC[C@H]1C(=O)N[C@@H](CO)C(=O)N[C@@H](CO)C(=O)NCC(=O)N[C@@H](C)C(=O)N1CCC[C@H]1C(=O)N1CCC[C@H]1C(=O)N1CCC[C@H]1C(=O)N[C@@H](CO)C(N)=O [Example 193] (H-Y[αMeP]EGTFTSDYSILLDEK([AEEA-AEEA-γGlu-C20 diacid])AQQAFIEYLIEGGPSSGAPPPS-NH2) | 0.162 | 0.336 |
| CC[C@H](C)[C@H](NC(=O)[C@H](CC(C)C)NC(=O)[C@H](Cc1ccc(O)cc1)NC(=O)[C@H](CCC(=O)O)NC(=O)[C@@H](NC(=O)[C@H](Cc1ccccc1)NC(=O)[C@H](C)NC(=O)[C@H](Cc1c[nH]cn1)NC(=O)[C@H](CCC(N)=O)NC(=O)[C@H](C)NC(=O)[C@H](CCCCNC(=O)COCCOCCNC(=O)COCCOCCNC(=O)CC[C@H](NC(=O)CCCCCCCCCCCCCCCCCCC(=O)O)C(=O)O)NC(=O)[C@H](CCC(=O)O)NC(=O)[C@H](CC(=O)O)NC(=O)[C@H](CC(C)C)NC(=O)[C@H](CC(C)C)NC(=O)[C@@H](NC(=O)[C@H](CO)NC(=O)[C@H](Cc1ccc(O)cc1)NC(=O)[C@H](CC(=O)O)NC(=O)[C@H](CO)NC(=O)[C@@H](NC(=O)[C@H](Cc1ccccc1)NC(=O)[C@@H](NC(=O)CNC(=O)[C@H](CCC(=O)O)NC(=O)[C@]1(C)CCCN1C(=O)[C@@H](N)Cc1ccc(O)cc1)[C@@H](C)O)[C@@H](C)O)[C@@H](C)CC)[C@@H](C)CC)C(=O)N[C@@H](CCC(=O)O)C(=O)NCC(=O)NCC(=O)N1CCC[C@H]1C(=O)N[C@@H](CO)C(=O)N[C@@H](CO)C(=O)NCC(=O)N[C@@H](C)C(=O)N1CCC[C@H]1C(=O)N1CCC[C@H]1C(=O)N1CCC[C@H]1C(=O)N[C@@H](CO)C(N)=O [Example 194] (H-Y[αMeP]EGTFTSDYSILLDEK([AEEA-AEEA-γGlu-C20 diacid])AQHAFIEYLIEGGPSSGAPPPS-NH2; N-terminus assumed) | 0.284 | 0.423 |
